Test results published in ChEMBL document CHEMBL5465560, “Selectivity Literature for EUbOPEN Chemogenomic Library” (2024).
Each block holds one compound with its values, some of them ahead of it.

Legend:
[1] = target: Vascular endothelial growth factor receptor 2 (Homo sapiens, UniProt P35968); assay: Selectivity interaction (Kinase panel (33PanQinase(R) Activity Assay)) EUB0000877a KDR
[2] = target: Delta-type opioid receptor (Homo sapiens, UniProt P41143); assay: Selectivity interaction (GPCR panel (PDSP screen)) EUB0000311b OPRD1; conditions: at 10 µM
Delta-type opioid receptor, sequence (P41143 whole entry): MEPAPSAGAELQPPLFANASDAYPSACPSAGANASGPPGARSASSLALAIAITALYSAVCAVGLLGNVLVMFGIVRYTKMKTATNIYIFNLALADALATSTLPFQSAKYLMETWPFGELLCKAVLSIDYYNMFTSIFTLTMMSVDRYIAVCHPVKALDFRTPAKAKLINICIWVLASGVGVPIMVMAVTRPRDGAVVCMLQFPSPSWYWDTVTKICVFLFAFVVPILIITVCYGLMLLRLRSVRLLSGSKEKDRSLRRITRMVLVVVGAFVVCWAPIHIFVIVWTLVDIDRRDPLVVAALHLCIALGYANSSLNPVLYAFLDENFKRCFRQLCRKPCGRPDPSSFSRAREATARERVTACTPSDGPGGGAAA

[3] = target: SRSF protein kinase 1 (Homo sapiens, UniProt Q96SB4); assay: Selectivity interaction (Kinase panel (literature)) EUB0001199aCl SRPK1; conditions: at 1 µM
SRSF protein kinase 1, sequence (Q96SB4 whole entry): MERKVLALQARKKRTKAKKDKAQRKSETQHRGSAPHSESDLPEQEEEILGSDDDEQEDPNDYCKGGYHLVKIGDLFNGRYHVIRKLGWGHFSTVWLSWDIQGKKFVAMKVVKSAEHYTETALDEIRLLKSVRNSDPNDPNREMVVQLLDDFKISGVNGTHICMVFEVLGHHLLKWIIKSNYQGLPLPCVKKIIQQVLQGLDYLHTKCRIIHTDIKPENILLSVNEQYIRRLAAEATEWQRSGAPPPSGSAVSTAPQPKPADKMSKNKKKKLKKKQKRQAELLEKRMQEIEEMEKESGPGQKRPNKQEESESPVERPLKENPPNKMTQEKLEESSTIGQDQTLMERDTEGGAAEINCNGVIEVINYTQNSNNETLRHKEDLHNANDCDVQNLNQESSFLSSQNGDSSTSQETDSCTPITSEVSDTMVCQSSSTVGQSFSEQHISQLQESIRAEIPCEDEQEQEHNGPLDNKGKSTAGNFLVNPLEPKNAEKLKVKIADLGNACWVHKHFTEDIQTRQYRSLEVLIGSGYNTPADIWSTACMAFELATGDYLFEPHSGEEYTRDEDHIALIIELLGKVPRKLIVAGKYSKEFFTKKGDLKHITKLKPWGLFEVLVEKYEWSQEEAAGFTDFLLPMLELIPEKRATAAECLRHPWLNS

[4] = target: T1, Rhodopsin kinase GRK1 (Homo sapiens) (UniProt Q15835); assay: Selectivity interaction (KinomeScan (DiscoverX)) EUB0000607a GRK1; conditions: at 10 µM
T1 sequence (whole entry): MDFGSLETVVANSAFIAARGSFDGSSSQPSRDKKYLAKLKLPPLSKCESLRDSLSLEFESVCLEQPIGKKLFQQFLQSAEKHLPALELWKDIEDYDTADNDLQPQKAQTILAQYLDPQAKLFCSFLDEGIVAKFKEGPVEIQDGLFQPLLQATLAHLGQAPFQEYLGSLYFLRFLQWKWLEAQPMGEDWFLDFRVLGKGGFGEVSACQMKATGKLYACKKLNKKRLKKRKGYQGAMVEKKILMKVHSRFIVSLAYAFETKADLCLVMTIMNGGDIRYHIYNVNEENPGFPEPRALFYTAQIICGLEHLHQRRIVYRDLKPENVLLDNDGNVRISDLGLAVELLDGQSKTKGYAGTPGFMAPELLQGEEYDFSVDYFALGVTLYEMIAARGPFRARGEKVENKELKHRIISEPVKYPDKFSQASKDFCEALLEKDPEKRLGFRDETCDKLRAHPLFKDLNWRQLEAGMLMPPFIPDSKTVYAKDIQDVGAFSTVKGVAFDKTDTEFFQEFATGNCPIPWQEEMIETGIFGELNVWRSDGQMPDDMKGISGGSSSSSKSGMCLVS

[5] = target: T2, Serine/threonine-protein kinase Nek1 (Homo sapiens) (UniProt Q96PY6); conditions: at 10 µM
T2 sequence (whole entry): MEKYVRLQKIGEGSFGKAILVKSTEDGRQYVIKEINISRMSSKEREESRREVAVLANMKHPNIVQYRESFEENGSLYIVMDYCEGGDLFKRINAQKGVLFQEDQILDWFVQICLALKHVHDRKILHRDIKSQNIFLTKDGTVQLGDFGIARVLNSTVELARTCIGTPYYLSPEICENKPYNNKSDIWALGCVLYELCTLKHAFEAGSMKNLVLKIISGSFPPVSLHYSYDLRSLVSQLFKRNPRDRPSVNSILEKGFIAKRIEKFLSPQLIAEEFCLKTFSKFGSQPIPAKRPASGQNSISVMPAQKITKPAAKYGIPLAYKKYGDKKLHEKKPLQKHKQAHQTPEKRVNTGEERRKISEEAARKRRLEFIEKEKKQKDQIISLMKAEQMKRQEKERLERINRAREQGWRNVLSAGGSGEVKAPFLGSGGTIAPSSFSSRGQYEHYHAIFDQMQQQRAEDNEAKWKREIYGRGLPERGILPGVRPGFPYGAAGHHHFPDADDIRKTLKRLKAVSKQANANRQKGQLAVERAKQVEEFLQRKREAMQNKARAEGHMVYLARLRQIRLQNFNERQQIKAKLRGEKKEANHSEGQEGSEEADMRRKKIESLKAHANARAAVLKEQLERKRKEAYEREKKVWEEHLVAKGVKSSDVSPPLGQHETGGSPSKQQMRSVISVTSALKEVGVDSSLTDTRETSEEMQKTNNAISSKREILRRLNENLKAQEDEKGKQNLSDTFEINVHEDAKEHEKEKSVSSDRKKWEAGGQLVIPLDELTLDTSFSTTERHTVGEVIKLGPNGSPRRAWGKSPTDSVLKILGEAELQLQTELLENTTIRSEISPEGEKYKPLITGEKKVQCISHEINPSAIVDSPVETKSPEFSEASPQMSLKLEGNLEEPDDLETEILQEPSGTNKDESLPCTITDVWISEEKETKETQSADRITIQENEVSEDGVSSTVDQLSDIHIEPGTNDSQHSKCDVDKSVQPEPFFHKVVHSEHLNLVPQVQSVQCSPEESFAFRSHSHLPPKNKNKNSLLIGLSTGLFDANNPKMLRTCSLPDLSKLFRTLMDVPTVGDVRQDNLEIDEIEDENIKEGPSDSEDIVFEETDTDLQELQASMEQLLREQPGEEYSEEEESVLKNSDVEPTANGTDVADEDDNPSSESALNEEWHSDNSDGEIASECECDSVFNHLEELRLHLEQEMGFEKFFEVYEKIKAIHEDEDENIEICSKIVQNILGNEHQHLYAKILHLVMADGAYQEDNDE

[6] = target: Polycomb protein SUZ12 (Homo sapiens) (UniProt Q15022); assay: Selectivity interaction (Methyltransferase screen (radiometric assays, panel of 8 PRMTs, 21 protein lysine methyltransferases, 3 DNA methyltransferases, and one RNA methyltransferase)) EUB0000271b SUZ12
Polycomb protein SUZ12 (Homo sapiens), sequence (Q15022 whole entry): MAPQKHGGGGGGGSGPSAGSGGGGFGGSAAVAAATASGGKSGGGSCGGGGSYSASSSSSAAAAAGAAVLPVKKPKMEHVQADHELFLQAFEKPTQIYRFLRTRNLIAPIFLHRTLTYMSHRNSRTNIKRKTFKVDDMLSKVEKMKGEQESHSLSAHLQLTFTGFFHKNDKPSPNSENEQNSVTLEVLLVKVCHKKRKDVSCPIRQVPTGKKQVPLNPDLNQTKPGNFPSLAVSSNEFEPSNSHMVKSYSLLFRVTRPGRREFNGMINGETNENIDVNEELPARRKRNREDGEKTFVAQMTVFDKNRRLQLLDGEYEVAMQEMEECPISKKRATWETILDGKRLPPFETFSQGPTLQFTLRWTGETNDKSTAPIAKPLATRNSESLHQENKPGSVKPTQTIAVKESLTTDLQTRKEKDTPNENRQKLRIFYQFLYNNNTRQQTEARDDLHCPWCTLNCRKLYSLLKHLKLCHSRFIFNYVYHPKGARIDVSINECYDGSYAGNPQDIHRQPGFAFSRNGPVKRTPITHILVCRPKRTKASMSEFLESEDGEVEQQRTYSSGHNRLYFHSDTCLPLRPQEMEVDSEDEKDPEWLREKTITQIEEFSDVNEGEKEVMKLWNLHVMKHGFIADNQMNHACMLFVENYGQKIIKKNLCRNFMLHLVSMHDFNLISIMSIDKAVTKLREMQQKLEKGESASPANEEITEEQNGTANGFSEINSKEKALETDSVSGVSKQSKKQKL

[7] = target: Interferon-induced, double-stranded RNA-activated protein kinase (Homo sapiens) (UniProt P19525); assay: Selectivity interaction (KinomeScan (DiscoverX)) EUB0000655a EIF2AK2; conditions: at 10 µM
Interferon-induced, double-stranded RNA-activated protein kinase (Homo sapiens), sequence (P19525 whole entry): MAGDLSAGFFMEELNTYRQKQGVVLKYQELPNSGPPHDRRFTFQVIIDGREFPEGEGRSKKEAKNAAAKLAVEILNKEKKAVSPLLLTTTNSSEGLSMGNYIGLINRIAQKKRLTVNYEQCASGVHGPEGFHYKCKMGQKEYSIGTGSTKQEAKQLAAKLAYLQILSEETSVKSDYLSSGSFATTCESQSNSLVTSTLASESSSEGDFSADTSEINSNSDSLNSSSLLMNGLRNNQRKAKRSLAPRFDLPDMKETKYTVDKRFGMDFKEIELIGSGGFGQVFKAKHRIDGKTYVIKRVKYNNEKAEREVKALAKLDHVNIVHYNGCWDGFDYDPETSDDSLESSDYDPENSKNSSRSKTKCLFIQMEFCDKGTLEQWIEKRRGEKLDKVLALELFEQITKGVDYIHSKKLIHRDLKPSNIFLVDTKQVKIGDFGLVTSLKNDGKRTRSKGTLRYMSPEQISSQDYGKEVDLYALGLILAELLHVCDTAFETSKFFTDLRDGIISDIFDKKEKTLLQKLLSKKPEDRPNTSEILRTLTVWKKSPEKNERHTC

[8] = target: Serine/threonine-protein kinase 26 (Homo sapiens, UniProt Q9P289); conditions: PBMC, at 1 µM
Serine/threonine-protein kinase 26, sequence (Q9P289 2-416 limits assumed): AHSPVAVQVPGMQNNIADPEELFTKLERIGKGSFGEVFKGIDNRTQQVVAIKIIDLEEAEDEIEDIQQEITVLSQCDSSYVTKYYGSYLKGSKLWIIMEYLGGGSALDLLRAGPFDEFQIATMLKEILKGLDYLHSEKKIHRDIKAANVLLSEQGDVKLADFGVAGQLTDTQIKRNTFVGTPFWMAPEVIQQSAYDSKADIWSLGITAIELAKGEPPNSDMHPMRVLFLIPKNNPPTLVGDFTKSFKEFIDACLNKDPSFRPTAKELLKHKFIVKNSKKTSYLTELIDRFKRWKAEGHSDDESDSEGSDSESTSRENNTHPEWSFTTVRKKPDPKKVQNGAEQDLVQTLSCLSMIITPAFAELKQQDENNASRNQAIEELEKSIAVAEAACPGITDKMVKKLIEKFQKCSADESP

Vascular endothelial growth factor receptor 2, sequence (P35968 whole entry): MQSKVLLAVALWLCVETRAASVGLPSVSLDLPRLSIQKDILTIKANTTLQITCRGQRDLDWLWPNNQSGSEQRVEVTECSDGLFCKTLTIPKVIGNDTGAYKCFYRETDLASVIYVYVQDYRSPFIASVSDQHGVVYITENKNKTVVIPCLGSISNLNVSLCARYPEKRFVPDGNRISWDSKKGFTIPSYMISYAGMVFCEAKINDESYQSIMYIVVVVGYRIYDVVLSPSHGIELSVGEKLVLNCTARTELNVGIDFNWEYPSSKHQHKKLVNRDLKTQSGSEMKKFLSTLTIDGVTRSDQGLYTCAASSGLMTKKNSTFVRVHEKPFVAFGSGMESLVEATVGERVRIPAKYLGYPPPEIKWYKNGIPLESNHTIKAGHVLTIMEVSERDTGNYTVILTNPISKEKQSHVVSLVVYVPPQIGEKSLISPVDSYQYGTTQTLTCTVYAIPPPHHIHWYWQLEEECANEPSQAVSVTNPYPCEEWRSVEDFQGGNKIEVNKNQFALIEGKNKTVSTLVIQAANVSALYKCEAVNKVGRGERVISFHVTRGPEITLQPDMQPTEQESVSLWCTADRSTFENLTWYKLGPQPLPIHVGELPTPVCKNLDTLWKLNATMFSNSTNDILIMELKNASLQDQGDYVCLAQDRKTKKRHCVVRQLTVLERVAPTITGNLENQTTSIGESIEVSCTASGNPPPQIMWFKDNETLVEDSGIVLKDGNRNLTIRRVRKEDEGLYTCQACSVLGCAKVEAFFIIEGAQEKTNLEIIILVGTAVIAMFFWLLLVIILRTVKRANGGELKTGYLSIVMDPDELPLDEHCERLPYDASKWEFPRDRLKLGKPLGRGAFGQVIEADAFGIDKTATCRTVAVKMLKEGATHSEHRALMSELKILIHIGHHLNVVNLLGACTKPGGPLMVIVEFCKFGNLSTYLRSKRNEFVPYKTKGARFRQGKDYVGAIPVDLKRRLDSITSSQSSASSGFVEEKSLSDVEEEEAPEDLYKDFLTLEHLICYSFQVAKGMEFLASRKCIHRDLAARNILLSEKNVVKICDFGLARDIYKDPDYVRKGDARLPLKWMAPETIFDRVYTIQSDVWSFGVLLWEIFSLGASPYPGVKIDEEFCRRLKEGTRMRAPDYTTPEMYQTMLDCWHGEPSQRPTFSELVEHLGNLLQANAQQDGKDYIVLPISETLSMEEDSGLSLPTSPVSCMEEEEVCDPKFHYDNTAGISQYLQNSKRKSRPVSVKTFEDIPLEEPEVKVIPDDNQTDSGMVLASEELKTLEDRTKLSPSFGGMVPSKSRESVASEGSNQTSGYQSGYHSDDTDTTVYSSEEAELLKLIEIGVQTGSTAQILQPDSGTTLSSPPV

Structure (SMILES): CN1Cc2nccc(-c3cn(C)nc3-c3ccc(F)cc3)c2C1=O
% of inhibition [3]: 8%

Structure (SMILES): CNC(=O)Nc1ccc(-c2nc(N3CC4CCC(C3)O4)c3cnn(C4CCC5(CC4)OCCO5)c3n2)cc1
% of control [4]: 100%

Structure (SMILES): Cc1cc(C)cc([C@@H]2c3cc(C)ccc3NC(=O)CN2C(=O)c2ccc(Br)s2)c1
% of activity ([6]; at 1 µM): 101% | % of activity ([6]; at 10 µM): 101%

Structure (SMILES): CN(C)CCOc1ccc(-c2nc(-c3ccncc3)c(-c3ccc4c(c3)CC/C4=N\O)[nH]2)cc1
% of control [7]: 61%

Structure (SMILES): N#Cc1cccc(-c2c[nH]c3ncnc(N4CCOCC4)c23)c1
% of inhibition [8]: 65%

Other lines, results leading:

IC50 [1]: > 10 µM
Structure (SMILES): CCC(=O)N1CC[C@H](Nc2ncnc3c2CN(c2cnc(OC)c(C(F)(F)F)c2)CC3)C1 [LENIOLISIB]

% of inhibition [2]: 20.5%
Structure (SMILES): CCc1ccccc1C(=O)Nc1n[nH]c2c(C)c(F)c(C3C(C#N)=C(C)N(C)C(C)=C3C#N)cc12 [BAY-3827]

% of control [5]: 100%
Structure (SMILES): CCN(CC)CCCCNc1ncc2cc(-c3cc(OC)cc(OC)c3)c(NC(=O)NC(C)(C)C)nc2n1
